Reference: publication PMC12111648, “New Dimethoxyaryl-Sesquiterpene Derivatives with Cytotoxic Activity Against MCF-7 Breast Cancer Cells: From Synthesis to Topoisomerase I/II Inhibition and Cell Death Mechanism Studies” (International Journal of Molecular Sciences, 2025)
Each block holds one compound with its values, some of them ahead of it.

Tests used:
Format in all cases: cell-based, human
[1] = system: MCF-7 cells; assay: MTT cytotoxicity assay on MCF-7 cells; details: for IC50: MTT, 48 h incubation, IC50 ± SD, three experiments in triplicate; for Selectivity Index (SI): SI = IC50 on MCF-10 cells/IC50 on MCF-7 cells
Procedure: (§1) In this study, we wondered whether semi-synthetic compounds have potential antitumoral properties against BC. Therefore, we were interested in investigating the effect of the compounds on the MCF-7 cell line. Firstly, we studied the effect on cell viability using a colorimetric MTT assay, which was performed to quantify the cytotoxic activity; each compound was evaluated at different concentrations (500−100−20−4−0.8−0.16−0.032−0 µM). Daunorubicin was also used as a positive control for comparison with a reference drug. […] Although the MCF-10 cell line provides a useful selectivity model, it may not fully represent the varying sensitivities of different normal cell types within a multicellular organism. The SI value indicates the ratio of toxicity in mammalian host cells to that in a tumoral cell. The data obtained in response to different concentrations of compounds were used to calculate the IC50 and corresponding SI values, as shown in Table 1.
(§2) The American Type Culture Collection (Rockville, MD, USA) supplied the following experimental cell lines: MCF-7, a human breast cancer cell line, and MCF-10A, a human epithelial breast cell line (ATCC N° CRL-10317). Both cell lines were grown in DMEM-F12 medium containing 10% FCS, 100 U/mL penicillin, 100 μg/mL streptomycin, and 1 mM glutamine. The cells were seeded at a concentration of 100 μL per well at a plating density of 3 × 10^3 cells/well and incubated for 24 h at 37 °C under 5% humidified CO2 to enable attachment. The cells were then treated with varying concentrations of synthesized compounds for […] under the same conditions. The compound stock solution was prepared in DMSO, and the final concentration of DMSO was kept at 0.1%. Control cultures were treated with only 1% ethanol.
(§3) Cells from the MCF-7 and MCF-10 lines were seeded into 96-well plates at a density of 1 × 10^4 per well. After 24 h, the compounds were added at increasing concentrations (500–100–20-4–0.8–0.16–0.032–0 µM), and the cells were incubated at 37 °C in a humidified 5% CO2/95% air mixture for 48 h. Following incubation, the cells were washed twice with PBS, and 100 μL of 0.5 mg/mL MTT solution was added to each well. After 2 h of incubation, the MTT solution was removed, and the formazan crystals were dissolved in 50 μL of DMSO per well. Absorbance was then measured at 570 nm using a microplate ELISA reader. IC50 values, determined from three independent experiments conducted in triplicate, were calculated using SigmaPlot® software (version 11.0). The selectivity index (SI) of each compound in each cell line was determined by calculating the ratio of the IC50 values for MCF-10 and cancer cell lines. Compounds were considered selective if SI values were equal to or greater than 3 [46].

[2] = system: MCF-10 cells; assay: MTT cytotoxicity assay on non-tumoral MCF-10 cells; details: IC50 ± SD, three experiments in triplicate
Procedure: as §1, §2, §3

[3] = system: MCF-7 cells; assay: Mitochondrial membrane potential (rhodamine 123, flow cytometry); details: MCF-7, compounds at respective IC50, 24 h
Procedure: To determine whether the toxic effects of selected sesquiterpenes (10c, 11c, 12c, 13c, and 14c) are due to the production of ROS and subsequent apoptosis, the mitochondrial membrane potential was measured. With this aim, a protocol using rhodamine 123 staining and flow cytometry was established to study the effect of the selected compounds [40]. The accumulation of rhodamine 123 in mitochondria is associated with the maintenance of the electrochemical gradient in mitochondria. Daunorubicin was used as a positive control (C+). The results are presented as the percentage of cells with increased mitochondrial membrane permeability.
Rhodamine 123 (Rho123), a positively charged dye that reacts to voltage changes and enters the mitochondria, was utilized to detect modifications in the mitochondrial membrane potential. The cells were exposed to specific compounds (IC50 values for each compound) for 24 h. Control cells that had not been treated were used as negative control, while cells treated with daunorubicin at a concentration of 1 µM served as the positive control. Following this, the cells were incubated with Rho123 (at a concentration of 1 µM) in darkness for an hour at 37 °C. Afterward, the medium was taken out, and the cells were washed with PBS. The cells were then dissociated using trypsin and collected through centrifugation for 10 min at 1500×g. The supernatant was thrown away, and the cell pellets were resuspended in PBS and analyzed using flow cytometry with the FL1 filter. The results are shown as the percentage of Rho123-stained cells.
Figure 5 The effect of the compound’s treatment on mitochondrial membrane potential. […] The data represent the means ± S.D. of at least three experiments with triplicate samples.

[4] = system: caspases-3/7 in MCF-7 cells; assay: Caspase-Glo 3/7 assay; details: MCF-7, 50 μM, 24 h, versus control
Procedure: Since ROS levels were increased in the MCF-7 cancer cell line in response to the compounds, it is important to determine whether this effect is associated with the onset of apoptotic cell death. […] Cells were treated with the selected compounds at 50 μM for 24 h, incubated in situ with the Caspase-Glo 3/7 marker assay, and then analyzed in a luminometer.
The activity of caspase 3/7 in MCF-7 cells treated with the compounds was determined using a Caspase-Glo-3/7 Assay kit from Promega (UK). This assay is a homogenous and luminescent method that measures the activity of caspase-3 and -7, which are essential for apoptosis. MCF-7 cells (1 × 10^4 cells per well) were seeded in a 96-well plate and incubated overnight. The cells were then treated for 24 h with the compounds (50 µM) and a blank as a control. After treatment, the Caspase-Glo® 3/7 reagent was prepared according to the manufacturer’s instructions. Specifically, 100 μL of the reagent was added to 100 μL of culture medium containing the treated cells in each well, and the mixture was incubated for 1 h at room temperature in the dark. Luminescence was then measured using a luminometer (Berthold Sirius Single Tube Luminometer). The fold change in caspase activity was calculated by expressing the average luminescence of each treatment as a fold change with respect to the average luminescence of the negative control.
Figure 6 The effect of the compounds on caspases-3/7 activity in cells from the human breast cancer cell line MCF-7. Caspases-3/7 activity was determined in MCF-7 cells following treatment with the compounds (50 μM) for 24 h. The data are reported as the ratio of activity in treated cells vs. the control (1% ethanol), which were arbitrarily assigned a unitary value. * p < 0.05 versus control cells (Ctrl). The data are reported as the mean values ± S.D. of three different experiments with samples in triplicate.

[5] = system: MCF-7 cells; assay: Intracellular ROS generation (DCFH2-DA, flow cytometry); details: MCF-7, compounds at respective IC50, 24 h, versus control
Procedure: An increase in intracellular ROS may be one of the factors that contribute to the cytotoxicity of certain compounds in cancer cell lines. In fact, ROS and mitochondrial damage are often associated with the induction of cell death. […] DCF fluorescence was then measured by flow cytometry. The difference in the percentage of DCF-positive cells between treated and control cells was used to indicate an increase in intracellular ROS, as shown in Figure 4.
Reactive oxygen species (ROS) production was measured using flow cytometry. Cells were treated with compounds (each with respective IC50 values) for 24 h, with untreated cells serving as the negative control and cells treated with 1 µM daunorubicin as the positive control. Following the treatment, intracellular ROS levels were visualized after incubation with 2′,7′-dichlorodihydro-fluorescein diacetate (DCFH2-DA) at a final concentration of 10 μM for the last 30 min of the treatment period. After incubation, the cells were washed with PBS, trypsinized, and centrifuged, and the resulting pellet was resuspended in PBS and immediately examined by flow cytometry.
Figure 4 The effect of the compound’s treatment on intracellular ROS generation. Cells were treated with compounds (respective IC50 values for each compound for 24 h), and intracellular ROS levels were determined in the human cancer cell line MCF-7 by flow cytometry using dichloro-fluorescein diacetate (DCFH2-DA). * p < 0.05 versus control cells (Ctrl). The data represent the means ± S.D. of at least three experiments with triplicate samples.

[6] = Homo sapiens, MCF10, 48 h incubation

Compound: COc1ccc([C@@H](O)[C@H]2C(C)=CCC3C(C)(C)CCC[C@@]32C)c(OC)c1 (stereo partly drawn) [Compound 10a, (1S)-(2,4-Dimethoxyphenyl)((1S,8aS)-2,5,5,8a-tetramethyl-1,4,4a,5,6,7,8,8a-octahydronaphthalen-1-yl) methanol]
IC50 ([1]; Homo sapiens, MCF7): 74.2 ± 7 µM
Selectivity Index (SI) [1]: 0.7
IC50 [2, 6]: 53.2 ± 10 µM

Compound: COc1ccc(OC)c([C@@H](O)[C@H]2C(C)=CCC3C(C)(C)CCC[C@@]32C)c1 (stereo partly drawn) [Compound 10b, (1S)-(2,5-Dimethoxyphenyl)((1S,8aS)-2,5,5,8a-tetramethyl-1,4,4a,5,6,7,8,8a-octahydronaphthalen-1-yl)methanol]
IC50 ([1]; Homo sapiens, MCF7): 131 ± 26.6 µM
Selectivity Index (SI) [1]: 0.1
IC50 [2, 6]: 10.1 ± 3 µM

mitochondrial membrane permeability [3]: did not increase
Compound: COc1ccc([C@@H](O)[C@H]2C(C)=CCC3C(C)(C)CCC[C@@]32C)cc1OC (stereo partly drawn) [Compound 10c, (1S)-(3,4-Dimethoxyphenyl)((1S,8aS)-2,5,5,8a-tetramethyl-1,4,4a,5,6,7,8,8a-octahydronaphthalen-1-yl) methanol]
caspases-3/7 activity [4]: considerably enhanced
IC50 ([1]; Homo sapiens, MCF7): 25.1 ± 2.2 µM
Selectivity Index (SI) [1]: 9.9
intracellular ROS levels (DCF fluorescence) [5]: significantly increased
IC50 [2, 6]: 248 ± 42.3 µM

Compound: COc1cc(OC)cc([C@@H](O)[C@H]2C(C)=CCC3C(C)(C)CCC[C@@]32C)c1 (stereo partly drawn) [Compound 10d, (1S)-(3,5-Dimethoxyphenyl)((1S,8aS)-2,5,5,8a-tetramethyl-1,4,4a,5,6,7,8,8a-octahydronaphthalen-1-yl)methanol]
IC50 ([1]; Homo sapiens, MCF7): 126 ± 11.5 µM
Selectivity Index (SI) [1]: 0.1
IC50 [2, 6]: 12.3 ± 3.1 µM

Compound: COc1ccc(C[C@H]2C(C)=CCC3C(C)(C)CCC[C@@]32C)c(OC)c1 (stereo partly drawn) [Compound 11a, (4aS,5S)-5-(2,4-Dimethoxybenzyl)-1,1,4a,6-tetramethyl-1,2,3,4,4a,5,8,8a-octahydronaphthalene]
IC50 ([1]; Homo sapiens, MCF7): 75.2 ± 11.3 µM
Selectivity Index (SI) [1]: 1.0
IC50 [2, 6]: 76.7 ± 3 µM

Compound: COc1ccc(OC)c(C[C@H]2C(C)=CCC3C(C)(C)CCC[C@@]32C)c1 (stereo partly drawn) [Compound 11b, (4aS,5S)-5-(2,5-Dimethoxybenzyl)-1,1,4a,6-tetramethyl-1,2,3,4,4a,5,8,8a-octahydronaphthalene]
IC50 ([1]; Homo sapiens, MCF7): 133 ± 14.9 µM
Selectivity Index (SI) [1]: 0.4
IC50 [2, 6]: 54.4 ± 3.5 µM

Compound: COc1ccc(C(=O)[C@H]2C(C)=CCC3C(C)(C)CCC[C@@]32C)c(OC)c1 (stereo partly drawn) [Compound 12a, (2,4-Dimethoxyphenyl)((1S,8aS)-2,5,5,8a-tetramethyl-1,4,4a,5,6,7,8,8a-octahydronaphthalen-1-yl)methanone]
IC50 ([1]; Homo sapiens, MCF7): 56.2 ± 7.3 µM
Selectivity Index (SI) [1]: 0.8
IC50 [2, 6]: 45.4 ± 4.8 µM

Compound: COc1ccc(OC)c(C(=O)[C@H]2C(C)=CCC3C(C)(C)CCC[C@@]32C)c1 (stereo partly drawn) [Compound 12b, (2,5-Dimethoxyphenyl)((1S,8aS)-2,5,5,8a-tetramethyl-1,4,4a,5,6,7,8,8a-octahydronaphthalen-1-yl)methanone]
IC50 ([1]; Homo sapiens, MCF7): 88.1 ± 19.9 µM
Selectivity Index (SI) [1]: 0.8
IC50 [2, 6]: 72.7 ± 4.3 µM

Compound: COc1cc(OC)cc(C(=O)[C@H]2C(C)=CCC3C(C)(C)CCC[C@@]32C)c1 (stereo partly drawn) [Compound 12d, (3,5-Dimethoxyphenyl)((1S,8aS)-2,5,5,8a-tetramethyl-1,4,4a,5,6,7,8,8a-octahydronaphthalen-1-yl)methanone]
IC50 ([1]; Homo sapiens, MCF7): 112 ± 25.4 µM
Selectivity Index (SI) [1]: 1.0
IC50 [2, 6]: 107 ± 15.4 µM

Compound: COc1ccc(/C=C2\C(C)=CCC3C(C)(C)CCC[C@]23C)c(OC)c1 (stereo partly drawn) [Compound 13a, (4aS)-5-((E)-2,4-Dimethoxybenzylidene)-1,1,4a,6-tetramethyl-1,2,3,4,4a,5,8,8a-octahydronaphthalene]
IC50 ([1]; Homo sapiens, MCF7): 48.9 ± 8 µM
Selectivity Index (SI) [1]: 1.4
IC50 [2, 6]: 70.9 ± 15.1 µM

Compound: COc1cc(OC)c2c(c1)[C@]1(C)CCC3C(C)(C)CCC[C@]3(C)C1=C2 (stereo partly drawn) [Compound 14a, (6aR,11bS)-8,10-Dimethoxy-4,4,6a,11b-tetramethyl-2,3,4,4a,5,6,6a,11b-octahydro-1H-benzo[a]fluorene]
IC50 ([1]; Homo sapiens, MCF7): 8.4 ± 1.8 µM
Selectivity Index (SI) [1]: 6.3
IC50 [2, 6]: 52.4 ± 3.5 µM

Compound: COc1cc2c(c(OC)c1)[C@]1(C)CCC3C(C)(C)CCC[C@]3(C)C1=C2 (stereo partly drawn) [Compound 14d, (6aR,11bS)-7,9-Dimethoxy-4,4,6a,11b-tetramethyl-2,3,4,4a,5,6,6a,11b-octahydro-1H-benzo[a]fluorene]
IC50 ([1]; Homo sapiens, MCF7): 120 ± 29.8 µM
Selectivity Index (SI) [1]: 0.3
IC50 [2, 6]: 31.4 ± 4.6 µM

Compound: (4aS,5S)-5-(3,5-Dimethoxybenzyl)-1,1,4a,6-tetramethyl-1,2,3,4,4a,5,8,8a-octahydronaphthalene [Compound 11d]
IC50 [1]: 187 ± 9 µM
IC50 ([2]; 48 h incubation): 165 ± 12.5 µM
